Series [1] concerns the target T1, Avi-PSMA (Homo sapiens, UniProt Q04609).
T1 construct: Biotinylated extracellular portion of PSMA (hereinafter called Avi-PSMA) used in the enzyme assay; made in house
Put plainly: Enzyme kinetics of Avi-PSMA (HPLC, cleavage of pteroyl-bis-L-glutamate). It counts as biochemical.

The target of series [2] is T2, CA-IX from blood serum (Homo sapiens, UniProt Q16790).
T2 construct: unpurified endogenous CA-IX contained in a cell lysate or in microliter volumes of serum; from tissue; host or cells: human blood serum
Put plainly: Bivalent ssCAbis probe assay, CA-IX from blood serum on M75 antibody, qPCR. The series is classed as binding. The conditions noted are these: CA-IX from 1 μl of blood serum. On the technique in general: In qPCR the cycle at which signal appears reflects the starting amount.
Procedure: (§1) Following the procedure described in the preceding examples, approximately 80 pg of CA-IX contained in a cell lysate of line HT-29 (used amount of total protein determined by Bradford assay was 1 μg) was immobilized using the M75 antibody.

For series [3], the target named is T3, CA-IX contained in a cell lysate of line HT-29 (Homo sapiens, UniProt Q16790).
T3 construct: unpurified endogenous CA-IX contained in a cell lysate or in microliter volumes of serum; endogenous in cells; host or cells: HT-29
Put plainly: Bivalent ssCAbis probe assay, CA-IX from HT-29 cell lysate on M75 antibody, qPCR. The series is classed as binding.
Procedure: as §1

Series [4] addresses T4, HIV-1 protease (Human immunodeficiency virus type 1 group M subtype B, UniProt P04585).
T4 construct: made in house
As to the kind of experiment: ssHIV1 probe assay, HIV-1 protease directly adsorbed on solid carrier, qPCR. The series is classed as binding. To be noted: pH 6.0.

Series [5] concerns the target T4, HIV-1 protease. As to the kind of experiment: ssHIV1 probe assay, HIV-1 protease bound to immobilized polyclonal antibody, qPCR. It counts as binding.
The target in series [6] is T4, HIV-1 protease. Put plainly: HIV-1 protease enzyme kinetics with chromogenic peptide substrate. The series is classed as biochemical.
In series [7] the target is T1, Avi-PSMA. As to the kind of experiment: PSMA catalytic activity for substrate hydrolysis by dsA3PSMA probe displacement, qPCR. The series is classed as biochemical. The conditions noted are these: for substrate cleaved during incubation: 40 minutes. As to the method:
Following the procedure described in section 1i, 20 pg of Avi-PSMA was immobilized to the bottom of the wells via immobilized neutravidin and subsequently incubated with the dsA3PSMA detection probe at a concentration of 35 pmol·l^−1 and simultaneously with various concentrations of the folyl-γ-L-glutamate substrate in the range of 10 nmol·l^−1 to 100 μmol·l^−1 for 40 minutes, and after washing, the amount of bound probe was determined with qPCR. […] At a concentration of 336 nmol·l^−1, 43% was cleaved, corresponding to kcat of 2.3 s^−1 and at a concentration of 1049 nmol·l^−1, 16% was cleaved, corresponding to kcat of 2.6 s^−1. Obtained kcat values are in conformity with the kcat value of 5 s^−1 obtained from enzyme kinetics as described in Section 1c.

The target in series [8] is CA-IX (Homo sapiens, UniProt Q16790, N346D). As to the kind of experiment: Reference enzyme kinetics of CA-IX (construct without PG domain).
[9] abbreviates: first independent experiment, read-out: Ki (1).
Setting [10] is: second independent experiment, read-out: Ki (2).
Where [11] appears, read: initial concentration 107 nmol·l^−1.
Setting [12] is: initial concentration 336 nmol·l^−1.
The mark [13] stands for this setting: initial concentration 1049 nmol·l^−1.

pKd, pKi: −log10 of the molar value. {C7NH2-Cpd13} = 6-amino-2-(hydroxymethyl)hexyl phosphate carrying Compound 13; {C6NH2-Cpd13} = 6-aminohexyl phosphate carrying Compound 13; {AmHex} = 6-amino-2-(hydroxymethyl)hexyl phosphate

What is called pKd is the Kd on a negative log10 scale, so that one unit is a factor of ten. Read a high pKd as a small Kd. A word on the kcat: it is the number of substrate molecules converted per active site and unit of time at saturation.

T1 sequence (Q04609 44-750 limits assumed): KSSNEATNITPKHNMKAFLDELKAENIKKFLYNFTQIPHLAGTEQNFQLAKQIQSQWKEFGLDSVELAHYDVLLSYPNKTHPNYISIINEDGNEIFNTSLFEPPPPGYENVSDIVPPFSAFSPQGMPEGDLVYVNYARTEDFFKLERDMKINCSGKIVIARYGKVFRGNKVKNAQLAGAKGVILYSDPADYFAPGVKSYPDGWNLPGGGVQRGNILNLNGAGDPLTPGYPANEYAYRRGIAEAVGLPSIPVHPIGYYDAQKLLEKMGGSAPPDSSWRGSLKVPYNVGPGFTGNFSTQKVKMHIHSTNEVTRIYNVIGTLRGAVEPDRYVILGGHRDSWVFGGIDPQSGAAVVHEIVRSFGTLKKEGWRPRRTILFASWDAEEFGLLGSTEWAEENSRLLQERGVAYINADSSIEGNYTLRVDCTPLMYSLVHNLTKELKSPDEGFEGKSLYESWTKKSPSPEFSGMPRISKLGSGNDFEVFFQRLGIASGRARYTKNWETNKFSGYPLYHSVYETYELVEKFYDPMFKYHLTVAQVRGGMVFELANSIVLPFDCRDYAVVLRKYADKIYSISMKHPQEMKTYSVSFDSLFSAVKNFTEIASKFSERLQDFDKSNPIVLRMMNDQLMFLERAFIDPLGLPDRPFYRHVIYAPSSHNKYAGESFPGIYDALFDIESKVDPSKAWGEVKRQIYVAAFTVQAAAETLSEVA

In turn, `NCCCC[C@H](NC(=O)N[C@@H](CCC(=O)O)C(=O)O)C(=O)O` [PSMA parent compound, S,S-2-[3-[5-amino-1-carboxypentyl]-ureido]-pentanedioic acid] gave a pKi in series [1] (Avi-PSMA enzyme assay) of 9.70.
“ssCAbis: bivalent probe: two molecules of Compound 13 on oligonucleotide SEQ ID NO: 7 (DNA AAACCTGCCAGTTGAGCATTTTTATCTGCCACCTTCTCCACCAGACAAAAGCTGGAAA; 5' {C6NH2-Cpd13}, 3' {C7NH2-Cpd13}, sugars by position and backbone not given here)”: the pKd is 8.66 in series [2] and 8.68 in series [3] (HT-29 lysate, HEPESTC′ buffer).
`NCCOCCOCCOCCOCCOCCC(=O)NCCCCOc1ccc(NC(=O)Nc2ccc(S(N)(=O)=O)cc2)cc1` [Compound 14, 18-oxo-23-(4-(3-(4-sulfamoylphenyl)ureido)phenoxy)-3,6,9,12,15-pentaoxa-19-azatri-cosan-1-aminium 2,2,2-trifluoroacetate]: the pKi in series [3] (ssCAbis probe, determined in the same way as Table 15, read-out: inhibitory constant) is 6.52.
`CCC[C@@]1(CCc2ccccc2)CC(O)=C([C@H](CC)c2cccc(NS(=O)(=O)c3ccc(C(F)(F)F)cn3)c2)C(=O)O1` [tipranavir]: the pKi in series [4] (setting [9]) was 8.89; in series [4] (setting [10]) it was 8.54; in series [5], 7.85; in series [6] it was 9.85.
Turning to `Nc1nc2ncc(CNc3ccc(C(=O)N[C@@H](CCC(=O)N[C@@H](CCC(=O)O)C(=O)O)C(=O)O)cc3)nc2c(=O)[nH]1` [folyl-γ-L-glutamate], in series [1] (as described in Section 1c), the “kcat from enzyme kinetics” value came to 5 s⁻¹. Also, the kcat was 1.2 s⁻¹ in series [7] (setting [11]), 2.3 s⁻¹ in series [7] (setting [12]) and 2.6 s⁻¹ in series [7] (setting [13]). In addition, the “substrate cleaved during incubation” value in series [7] (setting [11]) was found to be 80%; in series [7] (setting [12]), 43%; in series [7] (setting [13]), 16%.
Turning to `NS(=O)(=O)c1ccc(NC(=O)Nc2ccc(OCCCCNC(=O)CCOCCOCCOCCOCCOCCC(=O)ON3C(=O)CCC3=O)cc2)cc1` [Compound 13, 2,5-dioxopyrrolidin-1-yl 19-oxo-24-(4-(3-(4-sulfamoylphenyl)ureido)phenoxy)-4,7,10,13,16-pentaoxa-20-azatetracosan-1-oate], the pKi in series [8] is roughly 6.40.
`CC(C)[C@H](NC(=O)CCOCCOCCOCCOCCOCCC(=O)NCCO)C(=O)N[C@@H](Cc1ccccc1)C[C@H](O)[C@H](Cc1ccccc1)NC(=O)OCc1cncs1` [Compound 8, thiazol-5-ylmethyl ((24S,27S,29S,30S)-27-benzyl-1,29-dihydroxy-24-isopropyl-4,22,25-trioxo-31-phenyl-7,10,13,16,19-pentaoxa-3,23,26-triazahentriacontan-30-yl)carbamate]: the pKi in series [6] was 8.64.
With `COC(=O)N[C@H](C(=O)N[C@@H](Cc1ccccc1)[C@@H](O)CN(Cc1ccc(-c2ccccn2)cc1)NC(=O)[C@@H](NC(=O)OC)C(C)(C)C)C(C)(C)C` [atazanavir], the pKi in series [4] (setting [9]) was 9.96; in series [4] (setting [10]), 9.74; in series [5], 8.85; in series [6], 10.62.
`Cc1cccc(C)c1OCC(=O)N[C@@H](Cc1ccccc1)[C@@H](O)C[C@H](Cc1ccccc1)NC(=O)[C@H](C(C)C)N1CCCNC1=O` [lopinavir]: the pKi was 9.74 in series [4] (setting [9]), 9.39 in series [4] (setting [10]), 8.89 in series [5] and 10.74 in series [6].
For `Cc1nc(COc2ccc(C[C@H](NC(=O)O[C@H]3CO[C@H]4OCC[C@H]43)[C@H](O)CN(CC(C)C)S(=O)(=O)c3ccc4c(c3)OCO4)cc2)cs1` [brecanavir], the pKi in series [4] (setting [9]) was 10.40; in series [4] (setting [10]), 10.30; in series [5] it was 9.39; in series [6] it was 12.00.
Consider “iqPCR_amino: single-stranded DNA (SEQ ID NO: 1) with 3′-terminal 6-amino-2-(hydroxymethyl)hexyl phosphate modification, no ligand portion (DNA CCTGCCAGTTGAGCATTTTTATCTGCCACCTTCTCCACCAGACAAAAGCTGGAAA; DNA, 3' {AmHex}, backbone not given here)”, for which, in series [1] (0.5 μmol·l^−1), the “inhibition at the highest concentration used” value is “no inhibition observed”. Moreover, the “binding to immobilized HIV-1 protease” value in series [5] (100 ng of HIV-1 protease) is recorded as “no binding was observed”.
`O=C(O)CCC(NC(=O)NC(CCCCNC(=O)CCOCCC(=O)NCCO)C(=O)O)C(=O)O` (centres unmarked) [Compound 4, 1-hydroxy-4,10,18-trioxo-7-oxa-3,11,17,19-tetraazadocosane-16,20,22-tricarboxylic acid] gave a pKi in series [1] (Avi-PSMA, IC50 converted by Cheng-Prusoff, pH 7.4, 37° C.) of 8.48.

These data come from patent US10718772B2, “Method of detection of analyte active forms and determination of the ability of substances to bind into analyte active sites” (USTAV ORGANICKE CHEMIE A BIOCHEMIE AKADEMIE VED CR, V.V.I., priority 2014, dated 2020).
